Data from patent US20260248771A1, “VALBENAZINE, A VMAT2 INHIBITOR, AS A FREE BASE A TOSYLATE OR DITOSYLATE SALT, FOR USE IN THE TREATMENT OF CHOREA ASSOCIATED WITH HUNTINGTON'S DISEASE” (Neurocrine Biosciences, Inc., priority 2022, published 2026).

How the values were obtained:
Type in all cases: in vivo, human
subjects with HD [1] = assay: Phase 3 placebo-controlled study: UHDRS total maximal chorea (TMC) score; conditions: for TMC score LS mean difference between treatment groups (valbenazine minus placebo): change from screening period baseline
From the text: As used herein, “Unified Huntington Disease Rating Scale” or “UHDRS” is the standard clinical assessment tool in Huntington disease. The UHDRS is divided into four domains: motor performance, cognitive function, behavioral abnormalities, and functional abilities. The motor section consists of 31 items assessing oculomotor, bradykinesia/rigidity, dystonia, chorea, and gait/balance. The items are rated from zero to four, with zero indicating normal findings and four indicating severe abnormalities. The range of the Total Motor Score (TMS) is 0 to 124, with higher scores indicating more severe motor impairment. The cognitive component includes the verbal fluency test, the symbol digit modalities test, and the Stroop test (color naming, word reading, and interference). Lower scores indicate worse cognitive performance. The behavioral assessment measures the frequency and severity of 11 items, which are rated from zero (almost never/absent) to four (almost always/severe). The items assess depression, anxiety, aggression, psychosis, and other behavioral abnormalities. The behavioral score ranges from 0 to 88, with higher scores indicating more severe psychiatric abnormalities. The functional domain comprises three components, namely the total functional capacity (TFC), the functional assessment scale (FAS), and the independence scale (IS). The TFC consists of five items (occupation, finances, domestic chores, activities of daily living, and care level) and ranges from 0 to 13. The FAS includes 25 yes/no questions about common daily tasks (range 0-25). The Independence Score (IS) measures the level of independence by one single score between 10 and 100. For all functional scores, lower scores indicate a worse function. See, Huntington Study Group, Unified Huntington Disease Rating Scale: reliability and consistency. Mov Disord. 1996; 11:136-142, which is incorporated by reference in its entirety.
(§1) A Phase 3, randomized, double-blind, placebo-controlled study to evaluate the efficacy, safety, and tolerability of once-daily valbenazine in subjects with HD was conducted. The study included a 4-week screening period, an 8-week dose-adjustment period, a 4-week maintenance period, and a final study visit 2 weeks following the final dose of study drug.
Valbenazine was supplied as orally administered capsules containing 20 or 40 mg of valbenazine (free base equivalents as the ditosylate salt). Subjects must swallow the capsules with approximately 4 ounces of water or other liquid, with or without food.
During the dose-adjustment period, the investigator could increase a subject's dose to the next dose level if, in the investigator's opinion, the subject has tolerated the study drug at the current dose. Doses were adjusted in a blinded manner; subjects receiving placebo will undergo the dose-adjustment process but will continue to receive placebo. Dose increases were allowed at visits at the end of Weeks 2, 4, and 6. If the subject had not tolerated the current dose, the investigator could decrease the subject's dose at any time during the dose adjustment period (the 40 mg dose can be decreased to 20 mg). Doses were to be decreased 1 dose level at a time and subjects could have multiple dose decreases during the dose-adjustment period; subjects who were unable to tolerate the 20 mg dose could remain in the study but study drug dosing was discontinued.
During the maintenance period (beginning after the Week 8 visit through the end of Week 12), the subject's dose was maintained. If the subject could not tolerate the maintenance dose, the investigator could reduce the subject's dose a single time by 1 dose level (unless the subject is receiving 20 mg); if the subject could not tolerate the lower dose, he/she could remain in the study but study drug dosing was discontinued.
The primary endpoint for the study was change from baseline to maintenance in the Unified Huntington Disease Rating Scale total maximal chorea (TMC). […]

subjects with HD [2] = assay: Phase 3 study: safety and tolerability (adverse events)
Method: as §1
During the dose-adjustment and maintenance periods, the investigator could assess that a dose level is not tolerated if a subject experienced an adverse event (AE) that is (1) deemed associated with the study drug, and (2) of either moderate or severe intensity, or a serious AE.

subjects with HD [3] = assay: Phase 3 study: Patient Global Impression of Severity (PGI-S)
From the text: Exploratory endpoints included: • Wearable movement sensors (in select sites; optional participation) using MC10 Inc., BIOSTAMP® NPOINT® system • Huntington Disease Health Index • Changes from the screening period baseline to each postbaseline study visit (Weeks 2 through 12) in the TMC based on site assessments • Changes from the screening period baseline to maintenance (the average of the Week 10 and Week 12 assessments) in the TMC based on video recording central rater assessments • CGI-C response at Weeks 2 through 10 • PGI-C response at Weeks 2 through 10 • The change from baseline to Weeks 4, 8, and 10 in the Neuro-QoL Upper Extremity Function T-score. • The change from baseline to Weeks 4, 8, and 10 in the Neuro-QoL Lower Extremity Function T-score • CGI-S at Weeks 2 through 12 • PGI-S at Weeks 2 through 12 • SF-36 at Week 12 • HD-HI at Week 10 and Week 12 • EQ-5D-5L at Week 10 and Week 12 • UHDRS scores for motor, behavior, and functional capacity assessment at Weeks 2 through 12 • Other UHDRS scores including functional assessment and independence scale at Week 12 • AS at Week 12 • Change from screening period in physical activity by movement sensors at the Week 10 visit period
Subjects rated the severity of their chorea at scheduled visits on a 5-point scale. The PGI-S was analyzed using the same methods as the CGI-S.

subjects with HD [4] = assay: Phase 3 study: UHDRS total motor score (TMS); conditions: MMRM model; valbenazine vs placebo
From the text: As used herein, “Unified Huntington Disease Rating Scale” or “UHDRS” is the standard clinical assessment tool in Huntington disease. The UHDRS is divided into four domains: motor performance, cognitive function, behavioral abnormalities, and functional abilities. The motor section consists of 31 items assessing oculomotor, bradykinesia/rigidity, dystonia, chorea, and gait/balance. The items are rated from zero to four, with zero indicating normal findings and four indicating severe abnormalities. The range of the Total Motor Score (TMS) is 0 to 124, with higher scores indicating more severe motor impairment. The cognitive component includes the verbal fluency test, the symbol digit modalities test, and the Stroop test (color naming, word reading, and interference). Lower scores indicate worse cognitive performance. The behavioral assessment measures the frequency and severity of 11 items, which are rated from zero (almost never/absent) to four (almost always/severe). The items assess depression, anxiety, aggression, psychosis, and other behavioral abnormalities. The behavioral score ranges from 0 to 88, with higher scores indicating more severe psychiatric abnormalities. The functional domain comprises three components, namely the total functional capacity (TFC), the functional assessment scale (FAS), and the independence scale (IS). […]

Question: What does the source list for `COc1cc2c(cc1OC)[C@H]1C[C@@H](OC(=O)[C@@H](N)C(C)C)[C@H](CC(C)C)CN1CC2` [Valbenazine, (S)-2-amino-3-methyl-butyric acid (2R,3R,11bR)-3-isobutyl-9,10-dimethoxy-1,3,4,6,7,11b-hexahydro-2H-pyrido[2,1-a]isoquinolin-2-yl ester]?
Answer: onset of improvement of chorea symptoms (TMC by study visit) (subjects with HD [1]; FIG. 4, post-hoc analysis vs placebo): noted as early as week 2; TMC score LS mean difference between treatment groups (valbenazine minus placebo) (subjects with HD [1]; Week 2, on-site assessments): minus placebo) were as follows: Week 2 (−1.26 [95% CI: −2.18, −0.34],; TMC score LS mean difference between treatment groups (valbenazine minus placebo) (subjects with HD [1]; Week 4, on-site assessments): nominal p = 0.0077), Week 4 (−2.05 [95% CI: −3.12, −0.98],; TMC score LS mean difference between treatment groups (valbenazine minus placebo) (subjects with HD [1]; Week 6, on-site assessments): nominal p = 0.0002), Week 6 (−1.69 [95% CI: −2.83, −0.55], nominal; TMC score LS mean difference between treatment groups (valbenazine minus placebo) (subjects with HD [1]; Week 8, on-site assessments): p = 0.0041), Week 8 (−2.29 [95% CI: −3.46, −1.13], nominal; TMC score LS mean difference between treatment groups (valbenazine minus placebo) (subjects with HD [1]; Week 10, on-site assessments): p = 0.0002); Week 10 (−3.10 [95% CI: −4.36, −1.84], nominal; TMC score LS mean difference between treatment groups (valbenazine minus placebo) (subjects with HD [1]; Week 12, on-site assessments): p < 0.0001), and Week 12 (−3.22 [95% CI: −4.53, −1.91], nominal; placebo-adjusted mean reduction in TMC score (subjects with HD [1]; baseline to maintenance, vs placebo): 3.2 units; LS mean change from screening period baseline to maintenance in TMC scores (subjects with HD [1]; central video rater assessments, valbenazine group): in TMC scores as assessed by the central video raters was −3.51; TMC score treatment difference, screening period baseline to maintenance (subjects with HD [1]; central video rater assessments, valbenazine vs placebo): of −2.59 (95% CI: −3.76, −1.41); p < 0.0001 (nominal), and was consistent; TMC CFSPB @ Maintenance, LS Mean (subjects with HD [1]; change from screening period baseline to maintenance (average of Week 10 and Week 12), on-site assessments, once-daily valbenazine up to 80 mg, N=64): −4.6; TMC CFSPB @ Maintenance, LS Mean, Difference (subjects with HD [1]; valbenazine vs placebo, on-site assessments): −3.16; SAE and AE leading to discontinuation of study treatment (subjects with HD [2]; both treatment groups): comparable rates and low incidence; rates of TEAEs (subjects with HD [2]; both treatment groups): comparable rates of TEAEs in both treatment groups; tolerability (subjects with HD [2]; once-daily administration): well tolerated; somnolence (most commonly reported AE), incidence (subjects with HD [2]; valbenazine group): 15.6%; suicidal behavior or worsening of suicidal ideation (subjects with HD [2]; valbenazine treated subjects): No suicidal behavior or worsening of suicidal ideation was observed; PGI-S: proportion of valbenazine-treated subjects who had no chorea symptoms (subjects with HD [3]; Week 12): chorea symptoms increased to about 27% from about 9% at baseline,; PGI-S: proportion of valbenazine-treated subjects with moderate symptoms (subjects with HD [3]; Week 12): ~29%; PGI-S: severe or very severe symptoms (subjects with HD [3]; Week 12): No valbenazine-treated subject had severe; PGI-S: proportion of valbenazine-treated subjects with mild symptoms (subjects with HD [3]; Week 12 (remained consistent from baseline)): 45%), and the proportion with moderate symptoms decreased from; TMS score LS mean difference, change from screening period baseline to maintenance (subjects with HD [4]): groups: LS mean difference −3.99 (95% CI: −6.27, −1.70); p = 0.0008
